test system: Setaria faberi (SETFA); experiment: Post-emergence herbicidal glasshouse test; format: in vivo; details: post-emergence spray, 1000 g/ha, evaluated after 13 days, five-point scale
Method: (§1) Seeds of a variety of test species are sown in standard soil in pots (Ipomoea hederacea (IPOHE), Abutilon theophrasti (ABUTH), Amaranthus retoflexus (AMARE), Echinochloa crus-galli (ECHCG), Setaria faberi (SETFA)). After 8 days cultivation under controlled conditions in a glasshouse (at 24/16° C., day/night; 14 hours light; 65% humidity), the plants are sprayed with an aqueous spray solution derived from the formulation of the technical active ingredient in acetone / water (50:50) solution containing 0.5% Tween 20 (polyoxyethelyene sorbitan monolaurate, CAS RN 9005-64-5). Compounds are applied at 1000 g/ha unless otherwise stated. The test plants are then grown in a glasshouse under controlled conditions in a glasshouse (at 24/16° C., day/night; 14 hours light; 65% humidity) and watered twice daily. After 13 days the test is evaluated for the percentage damage caused to the plant. The biological activities are shown in the following table on a five-point scale (5=81-100%; 4=61-80%; 3=41-60%; 2=21-40%; 1=0-20%).

| Compound | percentage damage caused to the plant, SETFA |
| --- | --- |
| N#Cc1cc(Br)c(O)c(-c2ccc(C(F)(F)F)cc2)c1 [Compound 1.058] | 3 (3=41-60%) |
| N#Cc1cc(Br)c(O)c(-c2cccs2)c1 [Compound 1.134] | 1 (1=0-20%) |
| N#Cc1cc(Br)c(O)c(-c2ccc(C(F)(F)F)c(C(F)(F)F)c2)c1 [Compound 1.008] | 4 (4=61-80%) |
| N#Cc1cc(Br)c(O)c(-c2cncc(F)c2)c1 [Compound 1.052] | 3 (3=41-60%) |
| N#Cc1cc(Br)c(O)c(-c2cccc(Cl)c2F)c1 [Compound 1.045] | 1 (1=0-20%) |
| N#Cc1cc(-c2cccc(OC(F)(F)F)c2)c(O)c(C(F)(F)F)c1 [Compound 1.165] | 1 (1=0-20%) |
| N#Cc1cc(Br)c(O)c(-c2cccc(F)c2)c1 [Compound 1.046, 3-bromo-5-(3-fluorophenyl)-4-hydroxy-benzonitrile] | 3 (3=41-60%) |
| N#Cc1cc(-n2cc(Cl)c(C3CC3)n2)c(O)c(C(F)(F)F)c1 [Compound 1.259] | 2 (2=21-40%) |
| N#Cc1cc(-n2cc(Cl)c(C(F)F)n2)c(O)c(C(F)(F)F)c1 [Compound 1.250] | 2 (2=21-40%) |
| Cn1nc(-c2cc(C#N)cc(Br)c2O)cc1C(F)(F)F [Compound 1.007, 3-bromo-4-hydroxy-5-[1-methyl-5-(trifluoromethyl)pyrazol-3-yl]benzonitrile] | 1 (1=0-20%) |

same assay, conditions: post-emergence spray, applied at 500 gai/ha, evaluated after 13 days, five-point scale

| Compound | percentage damage caused to the plant, SETFA |
| --- | --- |
| N#Cc1cccc(-c2cc(C#N)cc(C(F)(F)F)c2O)c1 [Compound 1.145] | 1 (1=0-20%) |
| N#Cc1cc(-c2cc(F)cc(Cl)c2)c(O)c(C(F)(F)F)c1 [Compound 1.148] | 1 (1=0-20%) |

test system: Amaranthus retoflexus (AMARE); experiment: Post-emergence herbicidal glasshouse test; format: in vivo; details: post-emergence spray, 1000 g/ha, evaluated after 13 days, five-point scale
Method: as §1

| Compound | percentage damage caused to the plant, AMARE |
| --- | --- |
| N#Cc1cc(-c2csc(C(F)(F)F)n2)c(O)c(C(F)(F)F)c1 [Compound 1.225] | 5 (5=81-100%) |
| N#Cc1cc(Br)c(O)c(-c2ccc(C(F)(F)F)cc2)c1 [Compound 1.058] | 5 (5=81-100%) |
| N#Cc1cc(Br)c(O)c(-c2cccs2)c1 [Compound 1.134] | 4 (4=61-80%) |
| N#Cc1cc(Br)c(O)c(-c2ccc(C(F)(F)F)c(C(F)(F)F)c2)c1 [Compound 1.008] | 5 (5=81-100%) |
| N#Cc1cc(Br)c(O)c(-c2cncc(F)c2)c1 [Compound 1.052] | 5 (5=81-100%) |
| N#Cc1cc(Br)c(O)c(-c2cccc(Cl)c2F)c1 [Compound 1.045] | 5 (5=81-100%) |
| N#Cc1cc(Br)c(O)c(-c2cc(F)cc(Cl)c2)c1 [Compound 1.034] | 4 (4=61-80%) |
| N#Cc1cc(-c2cccc(OC(F)(F)F)c2)c(O)c(C(F)(F)F)c1 [Compound 1.165] | 3 (3=41-60%) |
| N#Cc1cc(Br)c(O)c(-c2cccc(F)c2)c1 [Compound 1.046, 3-bromo-5-(3-fluorophenyl)-4-hydroxy-benzonitrile] | 5 (5=81-100%) |
| N#Cc1cc(-n2cc(Cl)c(C3CC3)n2)c(O)c(C(F)(F)F)c1 [Compound 1.259] | 5 (5=81-100%) |
| N#Cc1cc(-n2cc(Cl)c(C(F)F)n2)c(O)c(C(F)(F)F)c1 [Compound 1.250] | 5 (5=81-100%) |
| Cn1nc(-c2cc(C#N)cc(Br)c2O)cc1C(F)(F)F [Compound 1.007, 3-bromo-4-hydroxy-5-[1-methyl-5-(trifluoromethyl)pyrazol-3-yl]benzonitrile] | 5 (5=81-100%) |

same assay, conditions: post-emergence spray, applied at 500 gai/ha, evaluated after 13 days, five-point scale

| Compound | percentage damage caused to the plant, AMARE |
| --- | --- |
| N#Cc1cccc(-c2cc(C#N)cc(C(F)(F)F)c2O)c1 [Compound 1.145] | 1 (1=0-20%) |
| N#Cc1cc(-c2cc(F)cc(Cl)c2)c(O)c(C(F)(F)F)c1 [Compound 1.148] | 3 (3=41-60%) |

test system: Echinochloa crus-galli (ECHCG); experiment: Post-emergence herbicidal glasshouse test; format: in vivo; details: post-emergence spray, 1000 g/ha, evaluated after 13 days, five-point scale
Method: as §1

| Compound | percentage damage caused to the plant, ECHCG |
| --- | --- |
| N#Cc1cc(Br)c(O)c(-c2ccc(C(F)(F)F)cc2)c1 [Compound 1.058] | 2 (2=21-40%) |
| N#Cc1cc(Br)c(O)c(-c2cccs2)c1 [Compound 1.134] | 1 (1=0-20%) |
| N#Cc1cc(Br)c(O)c(-c2cncc(F)c2)c1 [Compound 1.052] | 1 (1=0-20%) |
| N#Cc1cc(Br)c(O)c(-c2cccc(Cl)c2F)c1 [Compound 1.045] | 1 (1=0-20%) |
| N#Cc1cc(-c2cccc(OC(F)(F)F)c2)c(O)c(C(F)(F)F)c1 [Compound 1.165] | 1 (1=0-20%) |
| N#Cc1cc(Br)c(O)c(-c2cccc(F)c2)c1 [Compound 1.046, 3-bromo-5-(3-fluorophenyl)-4-hydroxy-benzonitrile] | 2 (2=21-40%) |
| N#Cc1cc(-n2cc(Cl)c(C3CC3)n2)c(O)c(C(F)(F)F)c1 [Compound 1.259] | 2 (2=21-40%) |
| N#Cc1cc(-n2cc(Cl)c(C(F)F)n2)c(O)c(C(F)(F)F)c1 [Compound 1.250] | 2 (2=21-40%) |

same assay, conditions: post-emergence spray, applied at 500 gai/ha, evaluated after 13 days, five-point scale

| Compound | percentage damage caused to the plant, ECHCG |
| --- | --- |
| N#Cc1cccc(-c2cc(C#N)cc(C(F)(F)F)c2O)c1 [Compound 1.145] | 1 (1=0-20%) |
| N#Cc1cc(-c2cc(F)cc(Cl)c2)c(O)c(C(F)(F)F)c1 [Compound 1.148] | 1 (1=0-20%) |

test system: Ipomoea hederacea (IPOHE); experiment: Post-emergence herbicidal glasshouse test; format: in vivo; details: post-emergence spray, 1000 g/ha, evaluated after 13 days, five-point scale
Method: as §1

| Compound | percentage damage caused to the plant, IPOHE |
| --- | --- |
| N#Cc1cc(Br)c(O)c(-c2ccc(C(F)(F)F)cc2)c1 [Compound 1.058] | 2 (2=21-40%) |
| N#Cc1cc(Br)c(O)c(-c2cccs2)c1 [Compound 1.134] | 4 (4=61-80%) |
| N#Cc1cc(Br)c(O)c(-c2ccc(C(F)(F)F)c(C(F)(F)F)c2)c1 [Compound 1.008] | 2 (2=21-40%) |
| N#Cc1cc(Br)c(O)c(-c2cncc(F)c2)c1 [Compound 1.052] | 1 (1=0-20%) |
| N#Cc1cc(Br)c(O)c(-c2cccc(Cl)c2F)c1 [Compound 1.045] | 1 (1=0-20%) |
| N#Cc1cc(-c2cccc(OC(F)(F)F)c2)c(O)c(C(F)(F)F)c1 [Compound 1.165] | 4 (4=61-80%) |
| N#Cc1cc(Br)c(O)c(-c2cccc(F)c2)c1 [Compound 1.046, 3-bromo-5-(3-fluorophenyl)-4-hydroxy-benzonitrile] | 3 (3=41-60%) |
| N#Cc1cc(-n2cc(Cl)c(C3CC3)n2)c(O)c(C(F)(F)F)c1 [Compound 1.259] | 5 (5=81-100%) |
| N#Cc1cc(-n2cc(Cl)c(C(F)F)n2)c(O)c(C(F)(F)F)c1 [Compound 1.250] | 5 (5=81-100%) |
| Cn1nc(-c2cc(C#N)cc(Br)c2O)cc1C(F)(F)F [Compound 1.007, 3-bromo-4-hydroxy-5-[1-methyl-5-(trifluoromethyl)pyrazol-3-yl]benzonitrile] | 3 (3=41-60%) |

same assay, conditions: post-emergence spray, applied at 500 gai/ha, evaluated after 13 days, five-point scale

| Compound | percentage damage caused to the plant, IPOHE |
| --- | --- |
| N#Cc1cccc(-c2cc(C#N)cc(C(F)(F)F)c2O)c1 [Compound 1.145] | 3 (3=41-60%) |
| N#Cc1cc(-c2cc(F)cc(Cl)c2)c(O)c(C(F)(F)F)c1 [Compound 1.148] | 4 (4=61-80%) |

test system: Abutilon theophrasti (ABUTH); experiment: Post-emergence herbicidal glasshouse test; format: in vivo; details: post-emergence spray, 1000 g/ha, evaluated after 13 days, five-point scale
Method: as §1

| Compound | percentage damage caused to the plant, ABUTH |
| --- | --- |
| N#Cc1cc(Br)c(O)c(-c2ccc(C(F)(F)F)cc2)c1 [Compound 1.058] | 1 (1=0-20%) |
| N#Cc1cc(Br)c(O)c(-c2cccs2)c1 [Compound 1.134] | 4 (4=61-80%) |
| N#Cc1cc(Br)c(O)c(-c2ccc(C(F)(F)F)c(C(F)(F)F)c2)c1 [Compound 1.008] | 2 (2=21-40%) |
| N#Cc1cc(Br)c(O)c(-c2cncc(F)c2)c1 [Compound 1.052] | 5 (5=81-100%) |
| N#Cc1cc(Br)c(O)c(-c2cccc(Cl)c2F)c1 [Compound 1.045] | 3 (3=41-60%) |
| N#Cc1cc(Br)c(O)c(-c2cc(F)cc(Cl)c2)c1 [Compound 1.034] | 4 (4=61-80%) |
| N#Cc1cc(-c2cccc(OC(F)(F)F)c2)c(O)c(C(F)(F)F)c1 [Compound 1.165] | 1 (1=0-20%) |
| N#Cc1cc(Br)c(O)c(-c2cccc(F)c2)c1 [Compound 1.046, 3-bromo-5-(3-fluorophenyl)-4-hydroxy-benzonitrile] | 5 (5=81-100%) |
| N#Cc1cc(-n2cc(Cl)c(C3CC3)n2)c(O)c(C(F)(F)F)c1 [Compound 1.259] | 3 (3=41-60%) |
| N#Cc1cc(-n2cc(Cl)c(C(F)F)n2)c(O)c(C(F)(F)F)c1 [Compound 1.250] | 2 (2=21-40%) |
| Cn1nc(-c2cc(C#N)cc(Br)c2O)cc1C(F)(F)F [Compound 1.007, 3-bromo-4-hydroxy-5-[1-methyl-5-(trifluoromethyl)pyrazol-3-yl]benzonitrile] | 2 (2=21-40%) |

same assay, conditions: post-emergence spray, applied at 500 gai/ha, evaluated after 13 days, five-point scale

| Compound | percentage damage caused to the plant, ABUTH |
| --- | --- |
| N#Cc1cccc(-c2cc(C#N)cc(C(F)(F)F)c2O)c1 [Compound 1.145] | 1 (1=0-20%) |
| N#Cc1cc(-c2cc(F)cc(Cl)c2)c(O)c(C(F)(F)F)c1 [Compound 1.148] | 1 (1=0-20%) |

From patent US20230024283A1, “HERBICIDAL COMPOUNDS” (SYNGENTA CROP PROTECTION AG, priority 2020, published 2023)
